Reference: patent US5126348A, “Bioavailability enhancers” (priority 1989, dated 1992)
Where two headings read alike, the source gives them in different places.

Assays:
[1] = cited from earlier work
[2] = Theophylline blood levels as a function of time after oral administration, with and without nicotinic acid (Example 1)
Text: FIG. 1 is a graph showing theophylline blood levels as a function of time after administration, comparing theophylline in combination with nicotinic acid with theophylline alone.

[3] = cited from earlier work; remark: listed apart in the source
[4] = parameters: species or system beagle dog; conditions: dog, in vivo
[5] = in vivo
Text: Venous blood samples were taken at time intervals listed below. […] After administration to the human volunteer, blood samples were taken at the same time intervals as the previous test. Relative salicylic acid concentrations of the samples were compared using fluorescence units as determined by spectrofluorometer.

[6] = cited from earlier work; remark: listed apart in the source

CC(C)NCC(O)COc1cccc2ccccc12 (stereo not shown) [propranolol]
bioavailability with hydralazine [1]: increased bioavailability

Cn1c(=O)c2[nH]cnc2n(C)c1=O [Theophylline, theophylline]
concentration at 29 min ([2]; human, in vivo, po, 300 mg): < 500 ng/mL | concentration at 1.05 h ([2]; human, in vivo, po, 300 mg): 2200 ng/mL | concentration at 1.55 h ([2]; human, in vivo, po, 300 mg): 4400 ng/mL | concentration at 121 min ([2]; human, in vivo, po, 300 mg): 5300 ng/mL | concentration at 2.5 h ([2]; human, in vivo, po, 300 mg): 7000 ng/mL | concentration at 184 min ([2]; human, in vivo, po, 300 mg): 7200 ng/mL | Blood levels of theophylline ([2]; time after administration 0, oral, 300 mg theophylline, with or without 100 mg niacin): < .05 µg/mL

NC(=O)c1cccnc1 [niacinamide]
vasodilation or flushing ([3]; niacinamide form): does not cause the vasodilation or flushing

CC(=O)Oc1ccccc1C(=O)O [ASA, acetylsalicylic acid]
absorption induced by reserpine [4]: near-complete absorption | elimination kinetics, reserpine-treated vs. non-pretreated dogs [4]: similar | plasma concentration of SA, reserpine-treated vs. non-pretreated dogs [4]: considerably higher at each time interval | time of peak plasma concentrations of SA, reserpine-treated vs. non-pretreated dogs [4]: at the same time in both tests | % of maximum concentration ([4]; 10 min): 24% | plasma SA concentration ([4]; 10 min): 19.9 µg/mL | % of maximum concentration ([4]; 20 min): 47% | % of maximum concentration ([4]; 30 min): 70% | plasma SA concentration ([4]; 60 min): 72.8 µg/mL | % of maximum concentration ([4]; 120 min): 100% | plasma SA concentration (max) ([4]; 120 min): 81.4 µg/mL | Total area under the plasma level curve, increase over non-pretreated dogs ([4]; 480 min): 13.2% | total AUC, increase ([4]; iv): 14.5% | % of Dose of ASA Absorbed (using IV ASA as 100% absorption) ([4]; po): 87.5% | bioavailability of aspirin with nicotinic acid [5]: enhanced

O=C(O)c1cccnc1 [nicotinic acid]
toxicity ([3]; even at high dosages): relatively harmless | low density lipids and cholesterol in the blood ([3]; high doses (3-6 g/day)): lowers | peripheral vascular resistance ([3]; high doses (3-6 g/day)): decreases | stroke volume of the heart ([3]; high doses (3-6 g/day)): increases | tolerated dosage ([3]; human, in vivo): up to 6 grams per day | effects on blood pressure ([3]; in vivo): only minor effects | heart rate and cardiac output ([3]; in vivo): increases | peripheral blood flow ([3]; in vivo): increases | flushing effect with acetylsalicylic acid ([3]; with acetylsalicylic acid): reduced | absorption with food ingestion [6]: not affected
